Data taken from patent EP0029617A1, “Use of tertiary heterocyclic amines as synergists in pesticides; derivatives of cycloamines” (priority 1979, dated 1981).

System: Kornkäfer (sitophilus granarius L)
Assay: whole plant or invertebrate
Type: in vivo
Details: for mortality at 1000 µg/mL / mortality at 100 µg/mL: Sitophilus granarius; for mortality at 1000 µg/mL: read-out: Wirksamkeit in % Substanz allein; for % Wirkung Substanz +Ripcord / % Wirkung Substanz +Talcord: Pyrethroid : Amin 1 : 10, amine 0,1 mg/ml; for mortality at 100 µg/mL: read-out: % Wirkung Substanz allein
Description: Test von tertiären, heterocyclischen Aminen allein und im Gemisch mit Pyrethroiden an Kornkäfern (sitophilus granarius L)
In Petrischalen mit 15 cm Durchmesser mit talcumbepuderten Seitenwänden, um das Entfliehen der Kornkäfer zu verhindern, wurden jeweils 2 ml der Acetonlösungen einpipettiert und durch vorsichtiges Schwenken der Schalen gleichmäßig auf dem Boden verteilt. Nach dem Abdampfen des Acetons und dem Antrocknen der Beläge wurden in jede Schale 25 Kornkäfer eingezählt. Nach einer Stunde wurde jeweils ein 12,5 cm Rundfilter in die Schalen eingelegt, um den Käfern das Befreien aus der Rückenlage zu ermöglichen, was auf der glatten Glasplatte nicht möglich ist. Die lichtscheuen Käfer verkrochen sich mit Vorliebe unter die Filter und blieben so ständig mit den Wirkstoffbelägen in Kontakt. Alle Versuche liefen mit 3 Wiederholungen. Nach 3 h wurden die toten Käfer ausgezählt.
In der Tabelle 3 ist jeweils der Durchschnitt der Summe der 4 Einzelwerte angegeben. 25 tote Kornkäfer entsprechen dabei einer Wirkung von 100 %. Die Temperaturen betrugen während der Tests im Durchschnitt 19 - 21°C. Der synergistische Faktor berechnet sich analog wie in Beispiel 1 angegeben.
Die zu prüfenden tertiären, heterocyclischen Amine wurden - mit 1 mg Wirkstoff pro ml als Acetonlösungen angesetzt. Sie wurden im Verhältnis 1 : 1 mit Ripcord bzw. Talcord, die mit 0,01 mg Wirkstoff pro ml als Acetonlösung vorlagen, gemischt. Die Einzelkomponenten wurden im Verhältnis 1 : 1 mit Aceton gemischt.
Auch bei diesen Versuchen zeigten die Kontrollversuche stets bei Versuchsende eine Mortalität der Kornkäfer von 0 %.
Die synergistische Wirkung der tertiären, heterocyclischen Amine auf die Pyrethroide ist auch dann noch deutlich, wenn das Amin in wesentlich niederen Aufwandmengen eingesetzt wird, als dies in Beispiel 3 beschrieben wurde. Die Ergebnisse sind in der Tabelle 4 zusammengestellt. Dieser Versuch zeigt auch, daß Amine mit insektiziden Eigenschaften, wenn sie in Konzentrationen unterhalb ihres insektiziden Wirkungsbereiches eingesetzt werden, immer noch gute synergistische Wirkungen im Gemisch mit Pyrethroiden zeigen. Die Versuche wurden wie im Beispiel 3 beschrieben mit Kornkäfern durchgeführt. Es wurden lediglich die Konzentrationen der eingesetzten tertiären, heterocyclischen Amine geändert. Für die Verdünnung Pyrethroid : Amin = 1 : 10 wurde das Amin mit 0,1 mg Wirkstoff/ml Acetonlösung eingesetzt. Für die Verdünnung 1 : 5 mit 0,05 mg Wirkstoff/ml.

[1] = amine 1 mg/ml in Aceton mixed 1 : 1 with Aceton, 2 ml per dish, 25 weevils, dead counted after 3 h
[2] = amine 1 mg/ml + Ripcord 0,01 mg/ml
[3] = amine 1 mg/ml + Talcord 0,01 mg/ml
[4] = amine 1 mg/ml mixed 1 : 1 with Ripcord 0,01 mg/ml, 3 h
[5] = amine 1 mg/ml mixed 1 : 1 with Talcord 0,01 mg/ml, 3 h
[6] = 3 h, amine 0,1 mg/ml (as for Pyrethroid : Amin 1 : 10)
[7] = sitophilus granarius, in vivo, 3 h

| SMILES | mortality at 1000 µg/mL [1] [%] | Synergistischer Faktor bei Ripcord [2] | Synergistischer Faktor bei Talcord [3] | Wirksamkeit in % Substanz +Ripcord [4] | Wirksamkeit in % Substanz +Talcord [5] | Wirksamkeit in % Substanz allein [1] | other results |
| --- | --- | --- | --- | --- | --- | --- | --- |
| CCCCCCCCCCCCN1CCCCCC1 [N-1-Dodecyl-hexamethylenimin] | 14 | 1,59 | 1,03 | 64,0% | 24,0% |  |  |
| CCCCCCCCCCCCN1CCOCC1 [N-1-Dodecyl-morpholin] | 0 | 2,76 | 1,53 | 86,8% | 14,8% |  |  |
| CCCCCCCCCCCCN1CCCCC1 [N-1-Dodecyl-piperidin] | 24 | 2,24 |  | 94,6% |  |  |  |
| CCCCCCCCCCCCN1CCCC1 [N-1-Dodecyl-pyrrolidin] | 89.3 |  |  | 92,0% | 96,0% |  |  |
| CCOCCN1CCCCC1 [N-1-Ethoxi-ethyl-(2)-piperidin] |  | 1,78 |  | 56,0% | 0% | 0% |  |
| CCCCCCCCCCCCCCCCN1CCCCC1CC (centres unmarked) [N-1-Hexadecyl-2-ethyl-piperidin] | 0 | 2,37 | 1,94 | 74,8% | 18,8% |  |  |
| CCCCCCCCCN1CCCCCC1 [N-1-Nonyl-hexamethylenimin] | 40 | 1,82 | 4,54 | 97,2% | 84,0% |  |  |
| CCCCCCCCN1CCCCC1CC (centres unmarked) [N-1-Octyl-2-ethyl-piperidin] | 26.8 | 1,52 | 2,60 | 74,8% | 52,0% |  |  |
| CCCCCCCCN1CCCCC1 [N-1-Octyl-piperidin] | 0 | 1,74 | 1,24 | 54,8% | 12,0% |  |  |
| CCCCCCCCN1CCCC1 [N-1-Octyl-pyrrolidin] | 0 | 1,78 | 4,12 | 56,0% | 40,0% |  |  |
| CCCCCN1CCOCC1 [N-1-Pentyl-morpholin] | 0 | 2,79 | 3,83 | 88,0% | 37,2% |  |  |
| CCCCCN1CCCCC1 [N-1-Pentyl-piperidin] | 0 | 1,94 | 2,06 | 61,2% | 20,0% |  |  |
| CCCCCN1CCCC1 [N-1-Pentyl-pyrrolidin] | 0 | 2,37 | 10,3 | 74,8% | 100,0% |  |  |
| c1ccc(CCN2CCOCC2)cc1 [N-1-Phenyl-ethyl-(2)-morpho-lin] |  | 2,76 | 7,55 | 86,8% | 73,2% | 0% |  |
| CC(C)=CCCC(C)=CCN1CCCCC1 [N-1-Piperidino-3,7-dimethyl-octadien-(2,6)] |  | 2,79 | 8,37 | 88,0% | 81,2% | 0% |  |
| C#CCN1CCCCC1CC (centres unmarked) [N-1-Propanrgyl-2-ethyl-piperidin] |  | 2,92 | 3,84 | 92,0% | 37,2% | 0% |  |
| CCCCCCCCCCCCCCN1CCCC1 [N-1-Tetradecyl-pyrrolidin] | 0 | 1,59 |  | 50,0% | 6,0% |  |  |
| CCCCCCCCCCCCCN1CCCC1 [N-1-Tridecyl-pyrrolidin] | 22.8 | 1,78 | 2,19 | 78,8% | 44,0% |  |  |
| CCCCCCCCCCCN1CCCCCC1 [N-1-Undecyl-hexamethylenimin] | 0 |  |  | 73,1% | 81,2% |  | % Wirkung Substanz +Ripcord (180 min): 92,0%; % Wirkung Substanz +Talcord (180 min): 73,2%; mortality at 100 µg/mL [6]: 0% |
| CCCCCCCCCCCN1CCCC1 [N-1-Undecyl-pyrrolidin] |  |  |  |  |  |  | Synergistischer Faktor bei Ripcord (Pyrethroid : Amin 1 : 10): 3,09; Synergistischer Faktor bei Talcord (Pyrethroid : Amin 1 : 10): 7,42; % Wirkung Substanz +Ripcord (180 min): 97,2%; % Wirkung Substanz +Talcord (180 min): 72,0%; mortality at 100 µg/mL [6]: 0% |
| c1ccc(OCCN2CCCCCC2)cc1 [N-2-Phenoxi-ethyl-(1)-hexa-methylenimin] |  | 2,70 | 5,09 | 85,2% | 49,4% | 0% |  |
| c1ccc(OCCN2CCCCC2)cc1 [N-2-Phenoxi-ethyl-(1)-piperidin] |  | 2,54 | 6,60 | 84,0% | 68,0% | 4,0% |  |
| CCCCCCCCCC(C)N1CCCC1 (centres unmarked) [N-2-Undecyl-pyrrolidin] | 56 | 1,36 |  | 98,8% | 64,0% |  |  |
| c1ccc(OCCCN2CCCCCC2)cc1 [N-3-Phenoxi-propyl-(1)-hexamethylenimin] |  | 2,03 | 3,42 | 64,0% | 33,2% | 0% |  |
| Clc1ccc(CN2CCCCC2)cc1 [N-4-Chlor-benzyl-piperidin] |  | 2,37 | 4,82 | 74,8% | 46,8% | 0% |  |
| Clc1ccc(CN2CCCC2)cc1 [N-4-Chlor-benzyl-pyrrolidin] |  | 3,17 | 2,35 | 100,0% | 22,8% | 0% | Synergistischer Faktor bei Ripcord (Pyrethroid : Amin 1 : 10): 3,09; Synergistischer Faktor bei Talcord (Pyrethroid : Amin 1 : 10): 7,55; % Wirkung Substanz +Ripcord (180 min): 97,2%; % Wirkung Substanz +Talcord (180 min): 73,2%; % Wirkung Substanz allein (amine 0,1 mg/ml (as for Pyrethroid : Amin 1 : 10), 180 min): 0% |
| O=[N+]([O-])c1ccc(CN2CCCCC2)cc1 [N-4-Nitro-benzyl-piperidin] | 2.8 | 1,47 | 1,77 | 49,2% | 20,0% |  |  |
| CCCCOCCOCCN1CCCCCC1 [N-(2'-Butoxi-diethylether-(2))-hexamethylenimin] |  |  |  |  |  |  | Synergistischer Faktor bei Ripcord (in vivo): 2,50; Synergistischer Faktor bei Talcord (in vivo): 3,30; Wirksamkeit in % Substanz +Ripcord [7]: 78,8%; Wirksamkeit in % Substanz +Talcord [7]: 32,0%; Wirksamkeit in % Substanz allein [7]: 0% |
| c1ccc(COCCN2CCOCC2)cc1 [N-(2-Benzyloxi-ethyl-(1))-morpholin] |  | 1,61 | 3,30 | 50,8% | 32,0% | 0% |  |
| c1ccc(OCCN2CCOCC2)cc1 [N-(2-Phenoxi-ethyl-(1))-morpholin] |  | 2,45 | 6,47 | 77,2% | 62,8% | 0% |  |
